Test results from BindingDB's records for doi:10.7270/Q2W957K6 (Pcmd, 2008).
Where a name gives a salt, the structure may show the parent alone.

These molecules were tested against Coagulation factor XI (Homo sapiens, UniProt P03951) (assay: human FXIa inhibitor potency, dose response, biochemical (AID 679)).
Chain of Coagulation factor XI (P03951 19-387 limits assumed): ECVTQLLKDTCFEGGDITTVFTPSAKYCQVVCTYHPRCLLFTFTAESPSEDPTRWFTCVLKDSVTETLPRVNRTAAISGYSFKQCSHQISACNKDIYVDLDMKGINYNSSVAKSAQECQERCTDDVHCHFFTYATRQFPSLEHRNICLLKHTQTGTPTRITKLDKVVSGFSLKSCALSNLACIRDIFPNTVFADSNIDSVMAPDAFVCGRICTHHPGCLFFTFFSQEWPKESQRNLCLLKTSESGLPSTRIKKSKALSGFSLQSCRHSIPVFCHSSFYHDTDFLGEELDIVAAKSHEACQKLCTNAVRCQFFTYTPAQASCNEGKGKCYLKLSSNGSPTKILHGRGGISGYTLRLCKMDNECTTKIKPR
Chain of Coagulation factor XI (P03951 388-625 limits assumed): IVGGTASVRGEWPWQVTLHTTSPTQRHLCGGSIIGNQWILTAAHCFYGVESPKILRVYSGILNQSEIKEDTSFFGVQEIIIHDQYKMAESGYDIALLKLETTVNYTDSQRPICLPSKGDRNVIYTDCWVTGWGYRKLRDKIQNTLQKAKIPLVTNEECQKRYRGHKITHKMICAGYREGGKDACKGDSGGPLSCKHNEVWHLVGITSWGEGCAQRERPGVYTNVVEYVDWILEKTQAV
`COc1ccc2c(=O)cc(-c3ccccc3)n(C)c2c1` [7-methoxy-1-methyl-2-phenyl-4-quinolinone] was tested, and the IC50 was > 50 µM. In the case of `O=C(c1ccc(F)cc1)N1CCN(C(=O)c2cccnc2)CC1` [SMR000140978], the IC50 is reported as > 50 µM. `COc1ccc(OCCSc2nc[nH]n2)cc1` [5-[2-(4-methoxyphenoxy)ethylsulfanyl]-1H-1,2,4-triazole] was tested, and the IC50 was > 50 µM. In the case of `COc1cc(C=c2sc3n(c2=O)CCCN=3)ccc1O` [SMR000126740], the IC50 is reported as > 50 µM. `COC(=O)CSc1nnc(C)n1-c1cccc(OC)c1` [[4-(3-Methoxy-phenyl)-5-methyl-4H-[1,2,4]triazol-3-ylsulfanyl]-acetic acid methyl ester] showed an IC50 of 2.36 µM. In the case of `Cc1cc(C)n2nc(C(=O)Nc3ccc4c(c3)OCO4)cc2n1` [SMR000144727], the IC50 is reported as > 50 µM. `CCn1nc(CC(=O)Nc2nnc(CC(=O)N3CCCC3)s2)c2ccccc2c1=O` [2-(3-ethyl-4-oxo-1-phthalazinyl)-N-[5-[2-oxo-2-(1-pyrrolidinyl)ethyl]-1,3,4-thiadiazol-2-yl]acetamide] was tested, and the IC50 was > 50 µM. In the case of `Cc1c(O)ccc(C(=O)CN2C(=O)c3ccccc3C2=O)c1O` [MLS000050535], the IC50 is reported as > 50 µM. For `COC(=O)c1ccc(NC(=O)Cc2c(O)n(-c3ccc(C)cc3)c(=O)n2CC(C)C)cc1` [methyl 4-[2-[1-(4-methylphenyl)-3-(2-methylpropyl)-2,5-bis(oxidanylidene)imidazolidin-4-yl]ethanoylamino]benzoate], the IC50 was > 50 µM. `COc1ccccc1-n1cnnc1SCC(=O)Nc1nc(C)c(Cl)cc1Cl` [SMR000153344] showed an IC50 of 10.2 µM. For `Cc1ccc(N(C(=O)c2ccccn2)C2(C(=O)NC3CCCC3)CCCCC2)cc1` [N-[1-(cyclopentylcarbamoyl)cyclohexyl]-N-(4-methylphenyl)pyridine-2-carboxamide], the IC50 was > 50 µM. In the case of `O=C(Nc1ccccc1C(=O)N1CCOCC1)c1ccc(F)cc1` [4-fluoro-N-[2-[4-morpholinyl(oxo)methyl]phenyl]benzamide], the IC50 is reported as 21.4 µM. In the case of `CN(CCOc1ccccc1)c1ccc(S(=O)(=O)N2CCCCC2)cn1` [N-methyl-N-(2-phenoxyethyl)-5-piperidin-1-ylsulfonylpyridin-2-amine], the IC50 is reported as > 50 µM. `COc1cccc(C(=O)N(Cc2ccccc2)Cc2cc3cc4c(cc3nc2O)OCCO4)c1` [MLS000123157] showed an IC50 of 10.4 µM. For `O=c1c(-c2cc3ccccc3o2)[n+]([O-])c2ccccc2n1OCc1ccccn1` [3-(1-benzofuran-2-yl)-1-(2-pyridinylmethoxy)-2(1H)-quinoxalinone 4-oxide], the IC50 was > 50 µM. `Cc1ccc(C(=O)n2nc(-c3cccnc3)nc2N)cc1` [1-(4-methylbenzoyl)-3-(3-pyridinyl)-1H-1,2,4-triazol-5-amine] was tested, and the IC50 was > 50 µM. `O=C(Oc1ccc2c(=O)c(Cl)coc2c1)c1cccnc1` [MLS000523505] was tested, and the IC50 was > 50 µM. `O=c1nc(-c2ccccc2)c2cc(Cl)ccc2[nH]1` was tested, and the IC50 was > 50 µM. For `CCOC(=O)c1c(C)nc2c(c1C)c(=O)oc1ccccc12` [ethyl 2,4-dimethyl-5-oxochromeno[4,3-b]pyridine-3-carboxylate], the IC50 was > 50 µM. In the case of `CCc1ccc(NC(=O)Cn2nc(C(F)(F)F)c3c2CCC3)cc1` [N-(4-Ethyl-phenyl)-2-(3-trifluoromethyl-5,6-dihydro-4H-cyclopentapyrazol-1-yl)-acetamide], the IC50 is reported as > 50 µM. With `CCOC(=O)c1cc2c(ccn2C)n1CC(=O)N1CCC(C)CC1` [ethyl 1-methyl-4-[2-(4-methylpiperidin-1-yl)-2-oxoethyl]pyrrolo[3,2-b]pyrrole-5-carboxylate] the IC50 was 0.744 µM. For `CCN(CC)CCNC(=O)C(C)c1nn(C)c(=O)c2ccccc12` (centres undefined), the IC50 was > 50 µM. For `O=c1cccc2n1CC1CC2CN(S(=O)(=O)c2ccccc2)C1` (centres undefined) [3-Benzenesulfonyl-1,2,3,4,5,6-hexahydro-1,5-methano-pyrido[1,2-a][1,5]diazocin-8-one], the IC50 was > 50 µM. `O=C(c1cn(-c2ccccc2)nc1-c1ccncc1)n1nnc2ccccc21` [1-{[1-phenyl-3-(4-pyridinyl)-1H-pyrazol-4-yl]carbonyl}-1H-1,2,3-benzotriazole] was tested, and the IC50 was 0.707 µM. `CCc1ccc(CC2SC(=C(C#N)C(C)=O)NC2=O)cc1` (centres undefined) [(2E)-2-[5-[(4-ethylphenyl)methyl]-4-oxo-2-thiazolidinylidene]-3-oxobutanenitrile] was tested, and the IC50 was > 50 µM. With `COc1ccc(CC(=O)NCc2ccc3c(c2)OCO3)cc1` the IC50 was > 50 µM. Molecule `CCn1c(SCC(=O)c2[nH]c(C)c(C(C)=O)c2C)nnc1-c1ccccc1` [SMR000153346] has an IC50 of 7.44 µM. For `CCCC1CCc2c(sc(N)c2C(N)=O)C1` (centres undefined), the IC50 was > 50 µM. In the case of `O=S(=O)(Nc1cccc2nsnc12)c1ccccc1`, the IC50 is reported as 9.3 µM. With `O=C(Oc1cccc(-n2cnnn2)c1)c1ccco1` [SMR000117840] the IC50 was 4.06 µM. In the case of `N#Cc1c(N)nc2c(c1N)=C(N)SC1=NC(=O)CC(c3ccccc3Cl)C=21` (centres undefined) [SMR000147835], the IC50 is reported as > 50 µM. Molecule `COCC/N=C1\Sc2nc3c(C)cccc3cc2CN1Cc1ccco1` [SMR000122349] has an IC50 of 0.745 µM. `CCOc1ccc(S(=O)(=O)NCc2ccc(OC)cc2)c2cccnc12` [MLS000521584] was tested, and the IC50 was > 50 µM. With `CCOc1cccc2cc(C(N)=O)/c(=N/Cc3ccccc3)oc12` [8-ethoxy-2-(phenylmethyl)imino-chromene-3-carboxamide] the IC50 was > 50 µM. For `CCOC(=O)N=S(=O)(Oc1ccc([N+](=O)[O-])cc1)c1ccccc1` (centres undefined) [N-[(4-nitrophenoxy)-oxo-phenyl--sulfanylidene]carbamic acid ethyl ester], the IC50 was > 50 µM. For `OCCCn1c(-c2ccccc2)nc(=S)c2c1CCCC2`, the IC50 was > 50 µM. For `COc1ccc(OCC(=O)Nc2cc(-c3nn(C)c(=O)c4ccccc34)ccc2OC)cc1` [N-[2-Methoxy-5-(3-methyl-4-oxo-3,4-dihydro-phthalazin-1-yl)-phenyl]-2-(4-methoxy-phenoxy)-acetamide], the IC50 was > 50 µM. `CCCN(CCC)C(C(=O)Nc1cccc(OC)c1)c1ccccc1` (centres undefined) [SMR000064514] was tested, and the IC50 was > 50 µM. For `CCCc1nc2ccccc2c(=O)n1-c1ccc(OC)cc1` [3-(4-Methoxy-phenyl)-2-propyl-3H-quinazolin-4-one], the IC50 was > 50 µM. Molecule `CCC1CC2CC(NC(C)=O)C1C2` (centres undefined) [N-(5-ethyl-3-bicyclo[2.2.1]heptanyl)ethanamide] has an IC50 of 0.588 µM. In the case of `Cc1cnc(C(=O)OCC(=O)NCc2ccccc2)cn1` [[2-(benzylamino)-2-oxoethyl] 5-methylpyrazine-2-carboxylate], the IC50 is reported as > 50 µM. `N#Cc1ccc(NC(=O)COC(=O)CNC(=O)C2CCCCC2)cc1` was tested, and the IC50 was > 50 µM. In the case of `CCC1(c2ccccc2)C(=O)N(C)C(=O)N(C)C1=O` [MLS000532164], the IC50 is reported as > 50 µM. For `Cc1ccc(NC(=O)CCn2cccc2)cc1`, the IC50 was > 50 µM. For `O=S(=O)(Cc1ccccc1)N1CCC(c2nc(-c3cccs3)no2)CC1` [MLS000027341], the IC50 was > 50 µM. In the case of `CCC(CO)NCc1ccc(OC2CCCC2)cc1` (centres undefined) [2-[(4-cyclopentyloxyphenyl)methylamino]butan-1-ol;hydrochloride], the IC50 is reported as > 50 µM. With `COc1cc(OC)c2c(N)c(C#N)c(C(F)(F)C(F)(F)F)nc2c1` [4-azanyl-5,7-dimethoxy-2-[1,1,2,2,2-pentakis(fluoranyl)ethyl]quinoline-3-carbonitrile] the IC50 was > 50 µM. For `Cc1cc(NC(=O)COC(=O)c2c(C)nn(Cc3ccccc3)c2C)no1` [[2-[(5-methyl-1,2-oxazol-3-yl)amino]-2-oxoethyl] 1-benzyl-3,5-dimethylpyrazole-4-carboxylate], the IC50 was > 50 µM. With `CCc1c(O)nc(SCC(=O)NC(C)(C)C)n(-c2ccccc2)c1=O` [SMR000147407] the IC50 was > 50 µM. `Cc1cccc(NC(=O)c2snc3c(=O)[nH]cnc23)c1` [SMR000000702] was tested, and the IC50 was > 50 µM. For `Cn1c(SCC(=O)NC2CCCCC2)nnc1-c1cccc(N)c1` [2-[5-(3-Amino-phenyl)-4-methyl-4H-[1,2,4]triazol-3-ylsulfanyl]-N-cyclohexyl-acetamide], the IC50 was > 50 µM. `COc1ccc(Cn2nnnc2C(c2ccccc2Cl)N2CCC(C(N)=O)CC2)cc1` (centres undefined) was tested, and the IC50 was > 50 µM. For `CNC(=O)COC(=O)c1[nH]c(C)c(C(C)=O)c1C` [SMR000152883], the IC50 was > 50 µM. In the case of `Cn1nnnc1SCC(=O)N(C1CCCCC1)C1CCCCC1` [N,N-dicyclohexyl-2-[(1-methyl-5-tetrazolyl)thio]acetamide], the IC50 is reported as > 50 µM. For `COC(=O)C(Cc1c[nH]c2ccccc12)NC(C)=O` (centres undefined) [SMR000121078], the IC50 was 6.69 µM. With `O=C(NC(C(=O)c1ccccc1)n1c(=O)cc[nH]c1=S)c1ccccc1` (centres undefined) the IC50 was > 50 µM. `Cc1cc(=O)[nH]c(-n2[nH]c(C)cc2=O)n1` [6-methyl-2-(3-methyl-5-oxo-2,5-dihydro-1H-pyrazol-1-yl)-4(3H)-pyrimidinone] was tested, and the IC50 was > 50 µM. In the case of `CCOC(=O)c1c(C)n(Cc2ccccc2)c2ccc(OCC(O)Cn3nc(C)cc3C)cc12` (centres undefined) [MLS000121399], the IC50 is reported as > 50 µM. `O=C(CCCN1C(=O)c2ccccc2C1=O)NCC1CCCO1` (centres undefined) [4-[1,3-bis(oxidanylidene)isoindol-2-yl]-N-(oxolan-2-ylmethyl)butanamide] gave an IC50 of 14.6 µM. With `O=C(NCc1ccccc1)C1CCCN(S(=O)(=O)c2cccc3nonc23)C1` (centres undefined) [1-(2,1,3-benzoxadiazol-4-ylsulfonyl)-N-benzylpiperidine-3-carboxamide] the IC50 was > 50 µM. `CC1=C(C(=O)OC(C)C)C(c2coc3ccccc3c2=O)C2C(=O)CCCC2=N1` (centres undefined) [MLS000533594] was tested, and the IC50 was > 50 µM. In the case of `CCCC(=O)n1nc(-c2ccccc2)nc1SC` [SMR000113998], the IC50 is reported as > 50 µM. `CCOc1cc(S(=O)(=O)N(Cc2ccccc2)Cc2ccccc2)c(OCC)cc1-n1cnnn1` [N,N-Dibenzyl-2,5-diethoxy-4-tetrazol-1-yl-benzenesulfonamide] was tested, and the IC50 was > 50 µM. `Cc1ccc(C(=O)n2nnc3ccccc32)cc1` [MLS000527467] was tested, and the IC50 was 2.39 µM. `CC(C)c1nc2ccc(NC(=O)C3CCCCC3)cc2[nH]1` [Cyclohexanecarboxylic acid (2-isopropyl-1H-benzoimidazol-5-yl)-amide] was tested, and the IC50 was > 50 µM. `COc1ccc(S(=O)(=O)N2CCC(C(=O)N3CCc4ccccc4C3)CC2)cc1Cl` gave an IC50 of 6.26 µM. For `Cc1ccc(NS(=O)(=O)c2ccc(OCC(=O)N3CCOCC3)cc2)cc1` [N-(4-methylphenyl)-4-(2-morpholin-4-yl-2-oxidanylidene-ethoxy)benzenesulfonamide], the IC50 was > 50 µM. In the case of `COC(=O)c1[nH]c2ccc(Br)cc2c1NC(=O)CN1CCCc2ccccc21` [methyl 5-bromanyl-3-[2-(3,4-dihydro-2H-quinolin-1-yl)ethanoylamino]-1H-indole-2-carboxylate], the IC50 is reported as > 50 µM. In the case of `Cc1c(NC(=O)c2cc3ccccc3o2)c(=O)n(-c2ccccc2)n1C` [MLS000556522], the IC50 is reported as > 50 µM.
